Molecules are shown by their SMILES.

We go through 45 compounds from ChEMBL document CHEMBL1147544, “N-alkyl-4-[(8-azabicyclo[3.2.1]-oct-3-ylidene)phenylmethyl]benzamides, micro and delta opioid agonists: a micro address” (Bioorg Med Chem Lett, 2004).

Experiment [1] has as its target T1, Mu-type opioid receptor (Homo sapiens, UniProt P35372). Briefly: In vitro binding affinity towards opioid receptor mu 1. Further details: species or system unidentified.
Experiment [2] deals with Delta-type opioid receptor (Homo sapiens, UniProt P41143). Briefly: In vitro binding affinity towards opioid receptor delta 1.
Chain of Delta-type opioid receptor (P41143 whole entry): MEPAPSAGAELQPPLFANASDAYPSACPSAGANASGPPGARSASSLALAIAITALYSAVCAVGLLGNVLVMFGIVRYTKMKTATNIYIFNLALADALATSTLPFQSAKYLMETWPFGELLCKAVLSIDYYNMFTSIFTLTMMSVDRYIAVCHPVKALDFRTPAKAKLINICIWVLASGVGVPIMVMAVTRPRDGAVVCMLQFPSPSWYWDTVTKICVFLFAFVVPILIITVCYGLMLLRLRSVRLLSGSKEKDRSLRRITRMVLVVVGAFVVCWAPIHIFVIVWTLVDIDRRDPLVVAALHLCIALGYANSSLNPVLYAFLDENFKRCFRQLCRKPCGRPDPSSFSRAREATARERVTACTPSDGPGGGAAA
Experiment [3] relates to Mus musculus. Description: Antinociceptive activity by mouse hotplate test (55 degree C, po ). Type of experiment: functional.
Experiment [4] deals with T1, Mu-type opioid receptor. Briefly: Percentage stimulation of [35S]GTP-gamma-S, binding at the opioid receptor mu 1 at 10 uM. The experiment is classed as functional.

T1 sequence (P35372 whole entry): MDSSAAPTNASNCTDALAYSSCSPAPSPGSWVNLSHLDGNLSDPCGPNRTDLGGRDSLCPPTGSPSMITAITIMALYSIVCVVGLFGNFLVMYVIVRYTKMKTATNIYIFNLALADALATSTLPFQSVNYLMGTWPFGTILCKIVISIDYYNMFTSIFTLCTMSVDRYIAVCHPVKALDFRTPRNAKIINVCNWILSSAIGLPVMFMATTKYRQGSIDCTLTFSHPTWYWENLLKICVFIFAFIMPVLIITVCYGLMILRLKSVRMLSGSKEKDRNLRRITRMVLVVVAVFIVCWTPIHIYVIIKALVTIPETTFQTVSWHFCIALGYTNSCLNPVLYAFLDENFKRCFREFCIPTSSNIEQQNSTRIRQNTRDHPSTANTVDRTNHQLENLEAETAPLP

With `CCNC(=O)c1ccc(C(=C2CC3CCC(C2)N3CCc2ccccc2)c2cccc(O)c2)cc1`, in experiment [1], the affinity, expressed as Ki, was 0.222 nM.
For the compound `CNC(=O)c1ccc(C(=C2CC3CCC(C2)N3CCc2ccccc2)c2ccccc2)cc1`, the values for the Ki in experiment [2] and in experiment [1] were 13 nM and 0.14 nM, respectively.
For `CCNC(=O)c1ccc(C(=C2CC3CCC(C2)N3c2cccn2C)c2ccccc2)cc1`, the inhibitory constant (Ki) (as a rule, the dissociation constant of the complex between target and ligand, obtained from inhibition or displacement) worked out at 20.8 nM in experiment [2] and 59 nM in experiment [1].
As for `CCCNC(=O)c1ccc(C(=C2CC3CCC(C2)N3CCc2ccccc2)c2ccccc2)cc1`, the values for the Ki in experiment [2] and in experiment [1] were 22 nM and 1.6 nM, respectively.
Consider `C=CCN1C2CCC1CC(=C(c1ccc(C(=O)NCC)cc1)c1cccc(OC)c1)C2`, for which the values for the Ki in experiment [2] and in experiment [1] were 1.45 nM and 13.8 nM, respectively.
Taken in the same sequence, the figures for `CCNC(=O)c1ccc(/C(=C2/C[C@H]3CC[C@@H](C2)N3)c2ccccc2)cc1` were 5.48 nM and 74.7 nM.
With `CCNC(=O)c1ccc(C(=C2CC3CCC(C2)N3CCOc2ccccc2)c2ccccc2)cc1`, the values for the inhibition constant (Ki) in experiment [2] and in experiment [1] were 63.4 nM and 93 nM, respectively.
For `COCCNC(=O)c1ccc(C(=C2CC3CCC(C2)N3CCc2ccccc2)c2ccccc2)cc1`, the inhibition constant Ki in experiment [2] was 103 nM; in experiment [1] it was 163 nM.
Take `C=CCN1[C@@H]2CC[C@H]1C/C(=C(\c1ccccc1)c1ccc(C(=O)NCC)cc1)C2`: the Ki in experiment [2] came out at 7.72 nM; in experiment [1] it was 19.1 nM.
With `C=CCN1C2CCC1CC(=C(c1ccc(C(=O)NCC)cc1)c1cccc(O)c1)C2`, the values for the inhibition constant Ki in experiment [2] and in experiment [1] were 0.384 nM and 9.58 nM, respectively.
Taken in the same sequence, the figures for `CCNC(=O)c1ccc(C(=C2CC3CCC(C2)N3CCCc2ccccc2)c2ccccc2)cc1` were 12.3 nM and 4.8 nM.
In the case of `NC(=O)c1ccc(C(=C2CC3CCC(C2)N3CCc2ccccc2)c2ccccc2)cc1`, the inhibition constant Ki in experiment [2] was determined as 35.9 nM; in experiment [1] it was 39.6 nM.
With `CCNC(=O)c1ccc(C(=C2CC3CCC(C2)N3CCc2ccccc2)c2cccc(OC)c2)cc1`, the results for the Ki in experiment [2] and in experiment [1] were 19.8 nM and 0.654 nM, respectively.
Take `O=C(NC1CC1)c1ccc(C(=C2CC3CCC(C2)N3CCc2ccccc2)c2ccccc2)cc1`: the inhibition constant (Ki) in experiment [2] came to 20 nM; in experiment [1], 1.01 nM.
Taken in the same sequence, the figures for `CCNC(=O)c1ccc(C(=C2CC3CCC(C2)N3CCc2c[nH]c3ccccc23)c2ccccc2)cc1` were 23.7 nM and 84 nM.
In the case of `CCNC(=O)c1ccc(C(=C2CC3CCC(C2)N3CCc2ccccc2)c2ccc(OC)cc2)cc1`, the Ki in experiment [2] was found to be 11.3 nM; in experiment [1], 6.1 nM.
In the case of `O=C(NC1CCCCC1)c1ccc(C(=C2CC3CCC(C2)N3CCc2ccccc2)c2ccccc2)cc1`, the inhibition constant (Ki) in experiment [2] is 924 nM; in experiment [1], 717 nM.
`CCNC(=O)c1ccc(C(=C2CC3CCC(C2)N3Cc2ccccc2Cl)c2ccc(OC)cc2)cc1`: the Ki came to 5.67 nM in experiment [2] and 122 nM in experiment [1].
With `CCNC(=O)c1ccc(C(=C2CC3CCC(C2)N3Cc2c[nH]cn2)c2ccccc2)cc1`, the results for the Ki in experiment [2] and in experiment [1] were 3.88 nM and 101 nM, respectively.
Regarding `CC(C)(C)NC(=O)c1ccc(C(=C2CC3CCC(C2)N3CCc2ccccc2)c2ccccc2)cc1`, the Ki in experiment [2] was found to be 352 nM; in experiment [1], 608 nM.
For the compound `C=CCN1[C@@H]2CC[C@H]1C/C(=C(/c1ccccc1)c1ccc(C(=O)NCC)cc1)C2`, the Ki was determined as 2.24 nM in experiment [2] and 10.5 nM in experiment [1].
Consider `CCNC(=O)c1ccc(C(=C2CC3CCC(C2)N3CCc2ccccc2)c2ccc(O)cc2)cc1`, for which the Ki is 7.8 nM in experiment [2] and 21.7 nM in experiment [1].
On to `CCNC(=O)c1ccc(/C(=C2\C[C@H]3CC[C@@H](C2)N3CCc2ccccc2)c2ccccc2)cc1`, for which, in experiment [3], it took a dose of 25 µmol/kg to reach the 50% effect level (ED50). For the same compound, the inhibition constant Ki in experiment [2] turned out to be 46.7 nM; in experiment [1] it was 0.26 nM. Also, the Stimulation in experiment [4] is 490%.
For `CCNC(=O)c1ccc(/C(=C2\C[C@H]3CC[C@@H](C2)N3C)c2ccccc2)cc1`, the Ki is 292 nM in experiment [2] and 304 nM in experiment [1].
As for `CCN(CC)C(=O)c1ccc(/C(=C2\C[C@H]3CC[C@@H](C2)N3CCc2ccccc2)c2ccccc2)cc1`, the median effective dose (ED50) – broadly, the midpoint of the dose-response relation – in experiment [3] was 25 µmol/kg.
In the case of `CCNC(=O)c1ccc(/C(=C2/C[C@H]3CC[C@@H](C2)N3C)c2ccccc2)cc1`, the Ki in experiment [2] turned out to be 6.39 nM; in experiment [1] it was 42.5 nM.
For the compound `CCNC(=O)c1ccc(C(=C2CC3CCC(C2)N3CCO)c2ccccc2)cc1`, the Ki in experiment [2] is 26.2 nM; in experiment [1], 76 nM.
As to `CCNC(=O)c1ccc(C(=C2CC3CCC(C2)N3Cc2ccccn2)c2ccccc2)cc1`, the Ki worked out at 0.86 nM in experiment [2] and 17 nM in experiment [1].
On to `CCNC(=O)c1ccc(C(=C2CC3CCC(C2)N3CC=C(C)C)c2cccc(O)c2)cc1`, for which the inhibition constant Ki in experiment [2] was 2.02 nM; in experiment [1], 2.52 nM.
Turning to `CCNC(=O)c1ccc(C(=C2CC3CCC(C2)N3Cc2ccccc2Cl)c2cccc(OC)c2)cc1`, the figures for the Ki in experiment [2] and in experiment [1] were 6.66 nM and 57.7 nM, respectively.
Taken in the same sequence, the figures for `O=C(NCCF)c1ccc(C(=C2CC3CCC(C2)N3CCc2ccccc2)c2ccccc2)cc1` were 32 nM and 2.99 nM.
For `CCNC(=O)c1ccc(C(=C2CC3CCC(C2)N3Cc2ccccc2Cl)c2cccc(O)c2)cc1`, the Ki in experiment [2] turned out to be 2.09 nM; in experiment [1], 15 nM.
As to `O=C(Nc1nccs1)c1ccc(C(=C2CC3CCC(C2)N3CCc2ccccc2)c2ccccc2)cc1`, the Ki in experiment [2] amounted to 49.5 nM; in experiment [1], 53 nM.
As for `CCNC(=O)c1ccc(C(=C2CC3CCC(C2)N3Cc2ccccc2Cl)c2ccc(O)cc2)cc1`, the Ki in experiment [2] came out at 0.93 nM; in experiment [1], 8.72 nM.
As to `O=C(Nc1ccccc1)c1ccc(C(=C2CC3CCC(C2)N3CCc2ccccc2)c2ccccc2)cc1`, the inhibition constant Ki in experiment [2] stood at 1520 nM; in experiment [1], 4240 nM.
Taken in the same sequence, the figures for `CCNC(=O)c1ccc(C(=C2CC3CCC(C2)N3Cc2cccs2)c2cccc(O)c2)cc1` were 0.152 nM and 0.664 nM.
For `CCNC(=O)c1ccc(C(=C2CC3CCC(C2)N3Cc2cccs2)c2ccc(OC)cc2)cc1`, the results for the Ki in experiment [2] and in experiment [1] were 1.32 nM and 13.5 nM, respectively.
As for `CCNC(=O)c1ccc(/C(=C2/C[C@H]3CC[C@@H](C2)N3CCc2ccccc2)c2ccccc2)cc1`, the figures for the inhibitory constant (Ki) in experiment [2] and in experiment [1] were 4.69 nM and 7.16 nM, respectively.
With `CCNC(=O)c1ccc(C(=C2CC3CCC(C2)N3Cc2cccs2)c2cccc(OC)c2)cc1`, the inhibitory constant (Ki) in experiment [2] stood at 0.51 nM; in experiment [1], 3.79 nM.
On to `CCNC(=O)c1ccc(C(=C2CC3CCC(C2)N3Cc2[nH]cnc2C)c2ccccc2)cc1`, for which the inhibition constant (Ki) in experiment [2] was 15.9 nM; in experiment [1], 61 nM.
As for `CCNC(=O)c1ccc(C(=C2CC3CCC(C2)N3)c2ccc(O)cc2)cc1`, the values for the Ki in experiment [2] and in experiment [1] were 4.5 nM and 265 nM, respectively.
On to `CCNC(=O)c1ccc(C(=C2CC3CCC(C2)N3)c2cccc(OC)c2)cc1`, for which the Ki is 13.2 nM in experiment [2] and 96 nM in experiment [1].
Taken in the same sequence, the figures for `CCNC(=O)c1ccc(C(=C2CC3CCC(C2)N3Cc2cccs2)c2ccc(O)cc2)cc1` were 0.25 nM and 6.77 nM.
Taken in the same sequence, the figures for `CCNC(=O)c1ccc(C(=C2CC3CCC(C2)N3CC=C(C)C)c2cccc(OC)c2)cc1` were 0.72 nM and 2.04 nM.
For the compound `CCCCNC(=O)c1ccc(C(=C2CC3CCC(C2)N3CCc2ccccc2)c2ccccc2)cc1`, the inhibitory constant (Ki) in experiment [2] was found to be 49.3 nM; in experiment [1] it was 21.7 nM.
